The subject of data set [1] is MDA-MB-231 cells. Description: JC-1 mitochondrial membrane potential staining, MDA-MB-231. It counts as cell-based, human. Particulars: HBB 20 μM 4 hours, (±)-14,15-EET 1 μM. How it is done:
(§1) Cells were grown in chamber slides at 37° C. with 5% CO2 and treated with DMSO or HBB for 4 hours before JC-1 dye was added for the MCF-7 or MDA-MB-231 cell line. […] Images of red fluorescence (590 nm) and green fluorescence (530 nm) were acquired using an Olympus 1X70 microscope fitted with an Olympus DP70 digital camera (Olympus, Tokyo, Japan).

Data set [2] has as its system MCF-7 cells. Kind of data set: JC-1 mitochondrial membrane potential staining, MCF-7. The format is cell-based, human. Particulars: HBB 20 μM 4 hours, (±)-14,15-EET 1 μM. How it is done: as §1
Data set [3] concerns MCF-7 cells. Description: RPPA analysis of MCF-7 cells treated with (±)-14,15-EET. To be noted: 15 minutes. It counts as cell-based, human. The text has this: It is proposed that HBB inhibition of ER+ tumor growth is due, in part, to direct inhibition of membrane associated non-mitochondrial CYP3A4, thereby suppressing Stat3 and mTOR signaling due to suppression of EET biosynthesis, resulting in AMPK activation (FIG. 6d, membrane diagram). […] In this model, EETs inhibit AMPK through unknown mechanisms. […] This model therefore proposes two sites of CYP3A4 activity, at cellular membranes and at mitochondria.

The subject of data set [4] is MCF-7 cells. Description: Western blot of signaling proteins, MCF-7. It counts as cell-based, human. How it is done:
(§2) RIPA extracts of cells were prepared as described previously, in the presence of protease inhibitors and phosphatase inhibitors. Protein concentrations were determined by the micro-bicinchoninic acid (BCA) method, and 30 μg of protein was used for each lane of the SDS-polyacrylamide gel Western blot. Relative protein expression was estimated using GAPDH or β-actin as an internal standard.

Data set [5] concerns MDA-MB-231 cell line. Kind of data set: Western blot of AMPK phosphorylation, MDA-MB-231. It counts as cell-based, human. Particulars: 1.0 μM, 24 hours. On the procedure:
as §2

Data set [6] relates to MCF-7. Kind of data set: MTT cell proliferation assay, MCF-7. It counts as cell-based. Particulars: Homo sapiens, MCF7. On the procedure: Cells were grown at 37° C. in a 5% CO2 incubator. […] MTT was then added (5 mg/ml), and after 2 h of incubation, the plates were centrifuged. The supernatant was removed; DMSO was added, and the absorbance was read at 540 nm with a BioTek 96-well plate reader.
For orientation: Tetrazolium dyes change colour on reduction, which living cells bring about.

Data set [7] deals with T1, CYP2C8 (Homo sapiens, UniProt P10632).
T1 sequence (P10632 1-490): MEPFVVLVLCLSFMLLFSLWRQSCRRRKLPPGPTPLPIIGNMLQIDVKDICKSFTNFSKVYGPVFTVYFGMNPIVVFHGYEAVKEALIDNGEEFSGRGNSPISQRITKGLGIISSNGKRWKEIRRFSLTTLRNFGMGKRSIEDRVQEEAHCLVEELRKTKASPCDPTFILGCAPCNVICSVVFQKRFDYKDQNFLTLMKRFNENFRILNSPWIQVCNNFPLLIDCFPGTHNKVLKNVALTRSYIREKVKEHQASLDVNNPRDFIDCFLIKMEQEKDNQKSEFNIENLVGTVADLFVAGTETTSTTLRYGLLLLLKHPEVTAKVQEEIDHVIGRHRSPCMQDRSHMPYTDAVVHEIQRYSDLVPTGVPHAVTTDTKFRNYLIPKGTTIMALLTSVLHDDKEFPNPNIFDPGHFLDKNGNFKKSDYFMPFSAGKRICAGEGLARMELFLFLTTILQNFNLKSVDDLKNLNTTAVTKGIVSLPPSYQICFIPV
Description: Binding to CYP nanodiscs (CYP2C8).

In data set [8] the target is T2, CYP2J2 (Homo sapiens, UniProt P51589).
T2 sequence (P51589 1-502): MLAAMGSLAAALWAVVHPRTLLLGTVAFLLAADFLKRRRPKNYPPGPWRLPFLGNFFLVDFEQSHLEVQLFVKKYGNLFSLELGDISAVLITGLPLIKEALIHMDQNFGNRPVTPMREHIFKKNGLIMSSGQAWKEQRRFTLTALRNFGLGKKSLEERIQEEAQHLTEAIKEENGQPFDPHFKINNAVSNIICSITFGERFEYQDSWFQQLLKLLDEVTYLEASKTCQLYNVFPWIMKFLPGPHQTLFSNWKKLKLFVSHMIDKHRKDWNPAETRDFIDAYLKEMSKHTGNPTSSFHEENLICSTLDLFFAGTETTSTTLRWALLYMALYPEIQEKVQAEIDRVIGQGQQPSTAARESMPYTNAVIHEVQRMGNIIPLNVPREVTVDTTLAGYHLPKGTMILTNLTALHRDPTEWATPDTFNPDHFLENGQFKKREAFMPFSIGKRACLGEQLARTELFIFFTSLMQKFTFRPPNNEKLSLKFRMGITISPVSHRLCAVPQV
Description: Binding to CYP nanodiscs (CYP2J2).

The test system of data set [9] is MCF-7 xenograft. To be noted: 100-fold higher dosing than HBB (Ma et al.); cited from earlier work.
The test system of data set [10] is MCF-7 cells. Description: Clonogenicity of MCF-7 cells. To be noted: 1 mM, 24 hours treatment, 2 weeks culture. It counts as cell-based, human. On the procedure:
FIG. 9A. […] After 24 hours of culture, the medium was then removed followed by addition of CM to the plates (left panel). The plates were then cultured for 2 weeks and at the endpoint the cell colonies were stained with crystal violet and the colonies counted. […] FIG. 9B.

Data set [11] concerns MCF-7 cells. Description: Cellular EET levels by LC-ESI/MS/MS. It counts as cell-based, human. Particulars: metformin 5 mM, 6 hours. How it is done:
Samples were submitted to liquid chromatography-electrospray ionization/multiple reaction monitoring/mass spectrometry (LC-ESI/MRM/MS) analysis in a Thermo Electron Quantum Discovery Max triple quadrupole mass spectrometer (Thermo Finnigan, San Jose, Calif.) coupled with an Agilent 1100 HPLC (Santa Clara, Calif.), using argon as the collision gas. Negative ion monitoring was performed at the following diagnostic product ions: 319 m/z→155 m/z for 8,9-EET; 319 m/z→179 m/z for 11,12-EET; 319 m/z→219 m/z for 14,15-EET; 339 m/z→163 m/z for 8,9-[13C20]EET; 339 m/z→233 m/z for 11,12-[13C20]EET; and 339 m/z→259 m/z for 14,15-[^13C20]EET. Base-line resolution of EET regioisomers was achieved on a Phenomenex Luna C18 (2) reverse phase capillary column (250×0.5 mm, 5-μm particles) using the following mobile phase combinations: isocratic 5% B for 5 min, gradient 5-70% B for 5 min, hold at 70% for 30 min and then 95% for 10 min; A: 0.01% acetic acid in water, B: 0.01% acetic acid in acetonitrile; […] flow rate. A standard curve was obtained by linear regression of the peak area ratio of authentic EET regioisomers against internal standards. The amount of EETs in samples was calculated according to the standard curve. The (±)-5,6-EET regioisomer was not measured because it undergoes rapid internal degradation. […]

Data set [12] deals with cytochrome P450 reductase (CPR). Kind of data set: CPR-mediated reduction of cytochrome c. Particulars: 1 and 10 mM. The format is biochemical. On the procedure: In a quartz cuvette, reduction of cytochrome c reaction was initiated by addition of CPR (final concentration 0.2 mg/mL) to 1 mL potassium phosphate buffer (0.3 M, pH=8.3) containing cytochrome c ([…]) and NADPH 50 ([…]). Absorbance at 550 nm was monitored real time by a Cary 50 UV-Vis Spectrophotometer (Agilent, Santa Clara, Calif.).

The target in data set [13] is T2, CYP2J2. Description: CYP2J2 epoxygenase activity. To be noted: 0.75, 1.5 or 3 mM.
Data set [14] relates to MCF-7 cells. Kind of data set: Cellular ATP by luminescent assay. To be noted: 6 hours of treatment; metformin 5 mM. The format is cell-based, human. How it is done: Cells were seeded in 96-well tissue culture plate in 100 μL medium per well. After treatment with either vehicle or testing compound for an appropriate length of time, 50 μL mammalian cell lysis solution was added to each well and the plate was shaken for 5 minutes on an orbital shaker. To each well, 50 μL luminescent substrate and luciferase solution were then added. After incubation in the dark for 10 minutes, the luminescence measured. Cellular ATP levels were then calculated against a standard curve generated with ATP standards of known concentration.

Data set [15] deals with MCF-7 cells. Description: Measurement of OCR and ECAR (extracellular flux), MCF-7. It counts as cell-based, human. Particulars: t-AUCB 2.5, 5 μM, metformin 2.5, 5 mM, HBB 20, 40 μM, rotenone 1 μM. How it is done: Cells were maintained in growth medium consisting of 10% FBS at 37° C. with 5% CO2 and seeded at 100,000 cells per well in XF24-well cell culture microplates (Seahorse Bioscience, North Billirica, Mass.). Concentrated stocks of HBB were prepared in DMSO. HBB was diluted to 10× working concentration in XF assay medium (a non-buffered medium including 2 mM L-glutamine but no sodium bicarbonate (buffering agent), glucose, or sodium pyruvate). Assays were performed in the XF Extracellular Flux Analyzer (Seahorse Bioscience that measures uptake and excretion of metabolic end products in real time). Oxygen consumption rate (OCR) and extracellular acidification rate (ECAR) were measured using an XF Assay Kit. OCR is reported in pmoles/minute and ECAR in mpH/minute. Before analysis, the cells were switched from culture medium to XF assay medium. After baseline measurements, 75 μl of HBB prepared in assay medium was injected into each well to reach final working concentrations. After addition of HBB, OCR and ECAR were measured at 18-minute intervals. […] There were 6 replicates for the studies of the 3-18 and 4-14 cell lines.

The mark [16] stands for this setting: read-out: IC50, MCF-7 breast cancer cell line.

Results on seven molecules are retold here after patent US20180177749A1, “USE OF CYP EXPRESSION TO DIRECT THERAPEUTIC INTERVENTION IN CANCER” (REGENTS OF THE UNIVERSITY OF MINNESOTA, priority 2016, published 2018).

“Also recorded” adds a separate entry of the source. Like-named read-outs stand apart in the source and are kept apart here.

What is called IC50 is the concentration at which inhibition is half-maximal.

For the molecule `CCCCCC1OC1C/C=C\C/C=C\C/C=C\CCCC(=O)O` (racemic) [(±)-14,15-EET, (±)-14,15-(5Z,8Z,11Z)-EET], the “mitochondrial membrane potential (ΔΨm), JC-1” value in data set [1] was “increased mitochondrial membrane potential”. Also, the “mitochondrial membrane potential (ΔΨm), JC-1” value in data set [2] is recorded as “increased mitochondrial cross membrane potential”. In data set [3], the “Stat3 phosphorylation on Y705 and S727” value is reported as “activated”; the “total mTOR level” value is “increased”. The “AMPK phosphorylation (pAMPK)” value in data set [4] (1 μM, 24 hours, MCF-7) is recorded as “suppression of pAMPKc”. In data set [5], the AMPK phosphorylation entry is “no effect on AMPK phosphorylation”.

As for `CCCCCCNC(=N)NC(=N)NCc1ncc[nH]1` [HIB, N1-hexyl-N5-[(1H-imidazol-2-yl)methyl]-biguanide], the IC50 is roughly 500 µM in [6] (setting [16]) and 500 µM in [6] (read-out: IC50 MCF-7).

As for `CCCCCCNC(=N)NC(=N)NCc1ccncc1` [HPB, N1-hexyl-N5-(pyridin-4-ylmethyl) biguanide], the IC50 in data set [6] (setting [16]) and in data set [6] (read-out: IC50 MCF-7) was 40 µM in each case.

In the case of `CCCCNC(=N)N=C(N)N` [buformin, reference compound], in [6] (read-out: IC50 MCF-7), the IC50 is greater than 10000 µM.

For the molecule `CN(C)C(=N)N=C(N)N` [metformin], the “binding to CYP2C8” value in data set [7] is given as “binds”. For the same molecule, the “binding to CYP2J2” value in [8] is reported as “binds”. Moreover, the “activity on the MCF-7 xenograft” value in [9] is “little activity”. Besides, the clonogenicity result in data set [10] is “Inhibits Clonogenicity”. In addition, in data set [11], the “cellular EET levels” value is given as “reduced”. The IC50 in [6] (read-out: IC50 MCF-7) was found to be 5000 µM. Besides, the “CPR-mediated reduction of cytochrome c” value in [12] was “not affected”; in data set [12] (listed as Metformin) it was “failed to inhibit”. Also, the “inhibition of CYP2J2 epoxygenase activity” value in data set [13] was “not inhibited”. Besides, the CYP3A4 protein levels entry in [4] (1 mM, 48 hours) was “did not affect; also recorded: did not change CYP3A4 protein levels”. Moreover, the “onset of AMPK activation (phosphorylation)” value in data set [4] (HBB 20 μM, metformin 5 mM) is on record as “first detectable after 6 hours”. Besides, the “total cellular ATP levels” value in [14] is on record as “unchanged; also recorded: failed to deplete cellular ATP”. The “extracellular acidification rate (ECAR)” value in data set [15] is on record as “marginal”. For the same molecule, the “oxygen consumption rate (OCR)” value in [15] was “marginal reduction of OCR”.

`N=C(N)/N=C(\N)NCCc1ccccc1` [phenformin, reference compound]: the IC50 in [6] (read-out: IC50 MCF-7) was determined as 7000 µM.

`C=C(C)[C@H]1Cc2c(ccc3c2O[C@@H]2COc4cc(OC)c(OC)cc4[C@@H]2C3=O)O1` [rotenone]: in data set [15], the “extracellular acidification rate (ECAR)” value is “Reduction of OCR and ECAR was highly significant”; the “oxygen consumption rate (OCR)” value is “Reduction of OCR and ECAR was highly significant”.
